Patent US20060235061A1, “Methods of using benzothiophenone derivatives to treat cancer or inflammation” (QLT,Inc., priority 2002, published 2006)

Target: T1, Caspase-3 (Homo sapiens, UniProt P42574)
T1 construct: purchased Calbiochem
T1 sequence (P42574 29-175 limits assumed): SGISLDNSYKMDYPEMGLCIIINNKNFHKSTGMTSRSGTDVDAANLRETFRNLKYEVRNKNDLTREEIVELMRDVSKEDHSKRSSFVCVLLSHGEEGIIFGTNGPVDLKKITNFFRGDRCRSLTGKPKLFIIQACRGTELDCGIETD
T1 sequence (P42574 176-277 limits assumed): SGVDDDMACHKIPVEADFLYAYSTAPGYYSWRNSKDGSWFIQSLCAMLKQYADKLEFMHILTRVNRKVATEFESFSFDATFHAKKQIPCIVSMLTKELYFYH
Experiment: Caspase-3 selectivity assay (Calbiochem kit, colorimetric)
Type: biochemical
Description: This is a selectivity assay providing information about the specificity of the compounds. A cysteine residue located within the active pocket of the catalytic domain that is conserved between the […] like caspase-3 and the protein tyrosine phosphatases like PTPN12 has a thiol group within this cysteine amino acid that may interact with specific R-groups with inhibiting compounds with in vitro enzyme inhibiting activity. Also, caspase inhibition can prevent apoptosis from occurring in some cases via the caspase cascade. As the potential for cross-inhibitory activity and nonselectivity exists, the caspase-3 assay is performed on PTN12 inhibitors.
The Calbiochem caspase-3 assay kit was utilized according to package insert instructions. The assay is useful for screening for caspase-3 inhibitors measuring the protease activity of caspase-3 and other caspase-3-like activities. Cleavage is monitored colorimetrically by measuring the increase in absorbance at 405 nm. Assays were performed in a 96-well microtiter plate format.

inhibition at 10 µM (@ 10 μM): 3%
inhibition at 100 µM (@ 100 μM): 27%
SMILES: O=C1C(=CC=CC=C2Sc3ccccc3N2CCCS(=O)(=O)O)Sc2ccccc21 [3-{2-[4-(3-Oxo-3H-benzo[b]thiophen-2-ylidene)-but-2-enylidene]-benzothiazol-3-yl}-propane-1-sulfonic acid]
